# Tests used:
# [1] = target: T1, TRAP1 (Homo sapiens, UniProt Q12931); assay: Western blot of TRAP1 client proteins (SIRT3, SDHB) in 22Rv1 cell lines; assay type: cell-based; set-up: dose or concentration left out as unconfirmed; details: 22Rv1 cells, 2 hours, normalized with DMSO (FIG. 24)
# T1 construct: endogenous in cells; host or cells: 22Rv1
# T1 sequence (Q12931 60-704): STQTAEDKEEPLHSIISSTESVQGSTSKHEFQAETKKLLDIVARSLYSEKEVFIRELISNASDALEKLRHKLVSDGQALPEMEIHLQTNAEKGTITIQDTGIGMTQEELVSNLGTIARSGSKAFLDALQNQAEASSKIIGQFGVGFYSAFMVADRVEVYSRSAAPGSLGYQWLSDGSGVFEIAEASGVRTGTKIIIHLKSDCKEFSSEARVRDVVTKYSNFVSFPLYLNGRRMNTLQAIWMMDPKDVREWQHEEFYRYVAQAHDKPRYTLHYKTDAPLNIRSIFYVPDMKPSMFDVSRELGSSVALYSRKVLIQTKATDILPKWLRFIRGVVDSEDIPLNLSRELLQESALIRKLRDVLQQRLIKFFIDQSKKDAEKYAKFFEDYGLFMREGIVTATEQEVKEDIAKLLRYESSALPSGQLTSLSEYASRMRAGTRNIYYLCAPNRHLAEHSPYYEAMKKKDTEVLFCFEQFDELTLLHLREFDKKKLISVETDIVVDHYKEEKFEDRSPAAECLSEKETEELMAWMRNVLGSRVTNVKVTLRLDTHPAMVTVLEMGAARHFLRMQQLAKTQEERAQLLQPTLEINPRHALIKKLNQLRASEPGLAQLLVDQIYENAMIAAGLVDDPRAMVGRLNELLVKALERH
# Description: 22Rv1 cell lines were cultured at 37° C. and 5% CO2, and DMEM-low glucose (Sigma) including 10% fetal bovine serum and 1% penicillin & streptomycin was used as the medium.
# 22Rv1 cell lines were eeded in the number of 5×10^5 on a 60-millimeter plate, and cultured in 3 ml of medium for 24 hours. The next day, the cells were treated with […] SMx and SM-series (SB-U005, SB-U009, SB-U011, SB-U012), mitochondrial heat shock protein 90 (TRAP1) and cultured for 2 hours. Whole cell lysates were made from the cultured cells, electrophoresed, transferred to a PVDF membrane, and then treated with a primary antibody at 4° C. for 18 hours. The next day, the whole cell lysates were treated with a secondary antibody for 1 hour and protein expression was analyzed using a western blotting detection reagent (FIG. 24).
# The cultured cells were treated with the SMx molecule and novel compound molecules SB-U005, SB-U009, SB-U011, and SB-U012 synthesized in Example 6 as drugs, and the treatment results were normalized with DMSO.
# [2] = system: oxygen-induced retinopathy mouse model; assay: Oxygen-induced retinopathy mouse model, eye drop administration, retinal vascular analysis; assay type: in vivo, C57BL/6J mice; details: 1 mM in Liposic, eye drops 3 times a day, P12 to P17; versus control eye (FIG. 18, 19)
# Excerpt: An oxygen-induced retinopathy mouse model was induced by rearing young C57BL/6J (Hyochang Science Inc.) mice aged 7 days after birth (P7) in a hyperoxic chamber (Coy Lab. in vivo chamber, 75% O2) for 5 days (P12), and then rearing the mice in a normoxic environment for 5 days (P17).
# An oxygen-induced retinopathy mouse model was induced by rearing young C57BL/6J (Hyochang Science Inc.) mice aged 7 days after birth (P7) in a hyperoxic chamber (Coy Lab. in vivo chamber, 75% O2) for 5 days (P12), and then rearing the mice in a normoxic environment for 5 days (P17). SMx was diluted with Liposic (solvent) to 1 mM during P12 to P17 (5 days), which is the period of time when oxygen-induced retinopathy is induced from normal oxygen, and then administered by eye drops 3 times a day. The right eye was administered SMx, and the left eye was administered the control Liposic.
# The oxygen-induced retinopathy mouse model was formed, and then perfused with 1×PBS and 4% PFA. After mouse eyes were extracted and fixed in 4% PFA, the retinas were isolated. The isolated retinas were washed with 1×PBS, and then blocked (0.1% BSA, 0.1% Triton X-100 in 1×PBS) at room temperature for 1 hour. The retinas were treated with a CD31 blood-vessel staining antibody (CD31, Cell Signaling, 1:100) overnight at 4° C. […] Blood vessel staining was analyzed under a fluorescence microscope (Zen, Axio Zoom). […]
# [3] = system: HIF-1α; assay: Western blot of HIF-1α in Muller cells (MIO-M1) under hypoxia; assay type: cell-based; details: MIO-M1, hypoxic chamber 1% O2 (FIG. 8)
# Description: (§1) Muller cells (MIO-M1) were cultured at 37° C. and 5% CO2, and DMEM-low glucose (Sigma) including 10% fetal bovine serum and 1% penicillin & streptomycin was used as the medium. A hypoxic chamber was maintained at 37° C., 5% CO2 and 1% O2.
# Muller cells (MIO-M1) were seeded in the number of 4×10^5 on a 60-millimeter plate and cultured in 3 ml of medium for 24 hours. The next day, the cells were treated with SMX, a mitochondrial heat shock protein 90 (TRAP1) inhibitor according to the concentrations shown in the drawing and cultured in a hypoxic chamber for 6 hours. Whole cell lysates were made from the cultured cells, electrophoresed, transferred to a PVDF membrane, and then treated with a primary antibody at 4° C. for 18 hours. The next day, the whole cell lysates were treated with a secondary antibody for 1 hour and protein expression was analyzed using a western blotting detection reagent.
# as §1, with “O2. […] The next day, the whole cell lysates were treated with a secondary antibody for 1 hour and protein expression was analyzed using a western blotting detection reagent.” for “O2.”
compound,measurement,setting,value
COC1=C(OC)C(=O)C(CCCCCCCCCC[P+](c2ccccc2)(c2ccccc2)c2ccccc2)=C(C)C1=O [SMx],"concentrations of the client proteins (SIRT3, SDHB)",[1],significantly decreased
same,avascular area,[2],significantly reduced
same,neovascular area,[2],significantly reduced
same,expression of HIF-1α,[3],suppressed

# — patent publication US12545695B2, “Compounds for inhibiting neovascularization factors and use thereof” (UNIST (ULSAN NATIONAL INSTITUTE OF SCIENCE AND TECHNOLOGY), priority 2019, dated 2026)
